# Laboratory results reported in US20080267905A1, “Methods and Compositions Using Selective Cytokine Inhibitory Drugs for Treatment and Management of Cancers and Other Diseases” (CELGENE CORPORATION, priority 2004, published 2008).
# Columns and labels:
# TNF-α production = assay: Inhibition of TNF-α production following LPS-stimulation of human PBMC and human whole blood (in vitro cytokine studies); format: cell-based; settings: compared with thalidomide
# Description: In a specific embodiment, the pharmacological properties of 3-(3,4-dimethoxy-phenyl)-3-(1-oxo-1,3-dihydro-isoindol-2-yl)-propionamide are characterized in in vitro studies. Studies examine the effects of the compound on the production of various cytokines. Inhibition of TNF-α production following LPS-stimulation of human PBMC and human whole blood by the compound is investigated in vitro. […] The pharmacological effects of 3-(3,4-dimethoxy-phenyl)-3-(1-oxo-1,3-dihydro-isoindol-2-yl)-propionamide may derive from its action as an inhibitor of the generation of inflammatory cytokines.
# [1] = Cardiovascular and respiratory function in anesthetized dogs; format: in vivo; settings: anesthetized Beagle dogs
# Protocol: The effects of 3-(3,4-dimethoxy-phenyl)-3-(1-oxo-1,3-dihydro-isoindol-2-yl)-propionamide on cardiovascular and respiratory function are investigated in anesthetized dogs. Two groups of Beagle dogs (2/sex/group) are used. One group receives three doses of vehicle only and the other receives three ascending doses of the compound (200, 400, and 800 mg/kg). In all cases, doses of the compound or vehicle are successively administered via infusion through the jugular vein separated by intervals of at least 30 minutes.
smiles,measurement,setting,value
"COc1ccc(C(CC(N)=O)N2Cc3ccccc3C2=O)cc1OC (stereo not drawn) [3-(3,4-dimethoxy-phenyl)-3-(1-oxo-1,3-dihydro-isoindol-2-yl)-propionamide]","pharmacological activity profile, potency relative to thalidomide",TNF-α production,five to fifty times more potent than thalidomide
same,cardiovascular and respiratory changes,"[1]; all doses (200, 400, and 800 mg/kg), infusion through the jugular vein, compared to vehicle control group",minimal
same,"deviations in femoral blood flow, respiratory parameters, and Qtc interval",[1]; common to both the control and treated groups,not considered treatment-related
same,arterial blood pressure,"[1]; following administration of the low dose, only statistically significant difference vs vehicle",small increase
same,arterial blood pressure effect at higher doses,[1]; higher doses,not seen at higher doses
same,duration of the arterial blood pressure effect,[1]; low dose,approximately 15 minutes
